The NIST ThermoML archive (doi:10.1016/j.jct.2012.04.005)
Several values for one entry are separate records, joined by “and”; a condition that tells them apart may be missing. Identical values can stand only once.

Details: isochoric method

CCOCC [diethyl ether]
Liquid
Details	mass density
416.1 K	534.6 kg/m3
425.19 K	517.3 kg/m3
437.14 K	485.2 kg/m3
450.6 K	441.5 kg/m3
450.77 K	440.8 kg/m3
459.61 K	394.8 kg/m3
464.79 K	348.2 kg/m3
466.12 K	212.6 kg/m3
466.47 K	310.8 kg/m3
466.66 K	233.7 kg/m3
466.75 K	296.7 kg/m3
466.8 K	288.3 kg/m3
466.81 K	278.7 kg/m3
466.82 K	275.7 kg/m3
466.83 K	255 kg/m3 and 260.7 kg/m3
466.85 K	261.2 kg/m3

Details	mass density [kg/m3]
416.3 K, 1625 kPa, Liquid	534.6
416.83 K, 1747 kPa, Liquid	534.6
416.93 K, 1693 kPa, Liquid	534.6
417.26 K, 1783 kPa, Liquid	534.6
418.11 K, 2014 kPa, Liquid	534.6
420.91 K, 2770 kPa, Liquid	534.6
421.09 K, 2823 kPa, Liquid	534.6
422.05 K, 3084 kPa, Liquid	534.6
425.27 K, 1926 kPa, Liquid	517.3
425.69 K, 4074 kPa, Liquid	534.6
425.75 K, 2146 kPa, Liquid	517.3
425.83 K, 2193 kPa, Liquid	517.3
425.96 K, 4149 kPa, Liquid	534.6
426.06 K, 2271 kPa, Liquid	517.3
426.78 K, 2602 kPa, Liquid	517.3
427.43 K, 4552 kPa, Liquid	534.6
432.78 K, 5984 kPa, Liquid	534.6
432.99 K, 6050 kPa, Liquid	534.6
433.93 K, 6306 kPa, Liquid	534.6
437.48 K, 2381 kPa, Liquid	485.2
437.61 K, 2392 kPa, Liquid	485.2
437.68 K, 2382 kPa, Liquid	485.2
437.79 K, 2430 kPa, Liquid	485.2
438.72 K, 2616 kPa, Liquid	485.2
438.85 K, 7649 kPa, Liquid	534.6
439.14 K, 7729 kPa, Liquid	534.6
439.97 K, 7955 kPa, Liquid	534.6
445.62 K, 3997 kPa, Liquid	485.2
445.85 K, 4046 kPa, Liquid	485.2
446.57 K, 4191 kPa, Liquid	485.2
448.81 K, 10345 kPa, Liquid	534.6
449.04 K, 10408 kPa, Liquid	534.6
449.96 K, 10662 kPa, Liquid	534.6
450.97 K, 2954 kPa, Liquid	441.5
450.98 K, 2969 kPa, Liquid	440.8
451.08 K, 2998 kPa, Liquid	440.8
451.17 K, 3017 kPa, Liquid	440.8
451.49 K, 3039 kPa, Liquid	441.5
451.69 K, 3088 kPa, Liquid	441.5
452.31 K, 3185 kPa, Liquid	440.8
452.82 K, 3254 kPa, Liquid	441.5
459.55 K, 6842 kPa, Liquid	485.2
459.83 K, 6900 kPa, Liquid	485.2
460.03 K, 3345 kPa, Liquid	394.8
460.23 K, 3396 kPa, Liquid	394.8
460.36 K, 3392 kPa, Liquid	394.8
460.5 K, 13585 kPa, Liquid	534.6
460.64 K, 7064 kPa, Liquid	485.2
460.64 K, 13628 kPa, Liquid	534.6
461.45 K, 3512 kPa, Liquid	394.8
461.55 K, 13877 kPa, Liquid	534.6
461.58 K, 4562 kPa, Liquid	441.5
461.85 K, 4602 kPa, Liquid	441.5
461.98 K, 4645 kPa, Liquid	440.8
462.66 K, 4726 kPa, Liquid	441.5
463.06 K, 4812 kPa, Liquid	440.8
465.09 K, 3597 kPa, Liquid	348.2
465.58 K, 3635 kPa, Liquid	348.2
465.68 K, 3649 kPa, Liquid	348.2
465.84 K, 3662 kPa, Liquid	348.2
466.13 K, 3555 kPa, Gas	212.6
466.67 K, 3560 kPa, Gas	233.7
466.68 K, 3578 kPa, Gas	212.6
466.76 K, 3609 kPa, Liquid	296.7
466.85 K, 3565 kPa, Gas	260.7
466.87 K, 3577 kPa, Liquid	275.7
466.88 K, 3561 kPa, Liquid	261.2
466.88 K, 3641 kPa, Liquid	310.8
466.89 K, 3586 kPa, Gas	255
467.09 K, 3625 kPa, Liquid	278.8
467.09 K, 3678 kPa, Liquid	310.8
467.29 K, 3582 kPa, Liquid	261.2
467.29 K, 3591 kPa, Gas	233.7
467.29 K, 3602 kPa, Liquid	275.7
467.29 K, 3605 kPa, Gas	255
467.39 K, 3612 kPa, Gas	255
467.47 K, 3597 kPa, Gas	233.7
467.49 K, 3648 kPa, Liquid	296.7
467.5 K, 3591 kPa, Liquid	261.2
467.57 K, 3699 kPa, Liquid	310.8
467.62 K, 3606 kPa, Gas	260.7
467.69 K, 3637 kPa, Liquid	288.3
467.96 K, 3736 kPa, Liquid	310.8
468.29 K, 3629 kPa, Gas	233.7
468.29 K, 3662 kPa, Gas	255
468.39 K, 3632 kPa, Liquid	261.2
468.52 K, 3635 kPa, Gas	212.6
468.69 K, 3669 kPa, Gas	260.7
468.69 K, 3721 kPa, Liquid	278.8
468.69 K, 3780 kPa, Liquid	310.8
468.83 K, 3719 kPa, Liquid	278.8
468.94 K, 3681 kPa, Liquid	275.7
469.49 K, 3681 kPa, Gas	212.6
469.89 K, 3738 kPa, Liquid	275.7
469.89 K, 3776 kPa, Liquid	278.8
470.22 K, 4019 kPa, Liquid	348.2
470.71 K, 16287 kPa, Liquid	534.6
470.75 K, 3929 kPa, Liquid	296.7
471.09 K, 16390 kPa, Liquid	534.6
471.25 K, 9234 kPa, Liquid	485.2
471.29 K, 4110 kPa, Liquid	348.2
471.59 K, 9306 kPa, Liquid	485.2
471.69 K, 16551 kPa, Liquid	534.6
472.29 K, 9719 kPa, Liquid	485.2
472.58 K, 4780 kPa, Liquid	394.8
473.16 K, 3968 kPa, Liquid	288.3
473.49 K, 4095 kPa, Liquid	296.7
473.49 K, 4886 kPa, Liquid	394.8
474.18 K, 4037 kPa, Liquid	288.3
477.4 K, 7063 kPa, Liquid	440.8
478.46 K, 7226 kPa, Liquid	440.8
478.97 K, 10850 kPa, Liquid	485.2
479.25 K, 10911 kPa, Liquid	485.2
479.29 K, 4255 kPa, Liquid	261.2
479.79 K, 4580 kPa, Liquid	310.8
480.04 K, 11078 kPa, Liquid	485.2
480.08 K, 4398 kPa, Liquid	288.3
480.2 K, 11129 kPa, Liquid	485.2
480.44 K, 4322 kPa, Liquid	296.7
480.44 K, 11179 kPa, Liquid	485.2
480.83 K, 4665 kPa, Liquid	310.8
481.03 K, 4460 kPa, Liquid	288.3
481.43 K, 11386 kPa, Liquid	485.2
487.13 K, 6550 kPa, Liquid	394.8
488.12 K, 6673 kPa, Liquid	394.8
490.82 K, 9157 kPa, Liquid	440.8
491.84 K, 9329 kPa, Liquid	440.8
492.58 K, 13642 kPa, Liquid	485.2
492.82 K, 13695 kPa, Liquid	485.2
493.6 K, 13857 kPa, Liquid	485.2
499.04 K, 6021 kPa, Liquid	310.8
499.15 K, 8032 kPa, Liquid	394.8
500.02 K, 6096 kPa, Liquid	310.8
500.21 K, 8166 kPa, Liquid	394.8
504.02 K, 15987 kPa, Liquid	485.2
504.28 K, 16044 kPa, Liquid	485.2
505.05 K, 16203 kPa, Liquid	485.2
517.61 K, 10294 kPa, Liquid	394.8
518.47 K, 10403 kPa, Liquid	394.8
533.2 K, 12288 kPa, Liquid	394.8
534.36 K, 12440 kPa, Liquid	394.8
554.38 K, 14968 kPa, Liquid	394.8
555.38 K, 15098 kPa, Liquid	394.8
574.32 K, 17455 kPa, Liquid	394.8
575.32 K, 17595 kPa, Liquid	394.8
